Assay results published in article PMC11556721, “A novel esterase regulates Klebsiella pneumoniae hypermucoviscosity and virulence” (PLOS Pathogens, 2024).

Columns and labels:
[1] = test system: T1, rKpACE (KpACE, Klebsiella pneumoniae Acetylated CPS Esterase); assay: acetylesterase assay, Michaelis-Menten fit; type: biochemical; details: pH 7.4
T1 construct: signal peptide (1-21) removed; N-terminal 6xHis tag; pET-28a, E. coli BL21(DE3)

[2] = target: recombinant KpACE (Klebsiella pneumoniae Acetylated CPS Esterase) (Klebsiella pneumoniae ATCC43816); assay: SEC; Superdex 200; rKpACE peak at 14.38 mL (75.6 kDa); predicted monomer 43.1 kDa

Row | Compound | Km [1] [µM] | stoichiometry N [2]
1 | CC(=O)Oc1ccc2c(C)cc(=O)oc2c1 [4-MU-Ac, 4-methylumbelliferyl acetate] | 160 ± 30 | 
2 | recombinant KpACE (Klebsiella pneumoniae Acetylated CPS Esterase) (enzyme) |  | 2
